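Values below derive from 48-hour exposures of cells grown in 96-well plates, with endpoints linearly interpolated between the two concentrations bracketing the appropriate inhibition level. The concentration for 50% growth inhibition is given as GI50. Definition used: TGI = concentration required for complete inhibition of growth.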
Legend:
Assay in all cases: growth of human tumour cells (NCI), 48 h
[1] = test system: 786-0 renal
[2] = test system: A498 renal
[3] = test system: A549 NSCLC
[4] = test system: ACHN renal
[5] = test system: BT-549 breast
[6] = test system: CAKI-1 renal
[7] = test system: CCRF-CEM leukemia
[8] = test system: COLO 205 colon
[9] = test system: DU-145 prostate
[10] = test system: EKVX NSCLC
[11] = test system: HCC-2998 colon
[12] = test system: HCT-116 colon
[13] = test system: HCT-15 colon
[14] = test system: HL-60(TB) leukemia
[15] = test system: HOP-62 NSCLC
[16] = test system: HOP-92 NSCLC
[17] = test system: HS 578T breast
[18] = test system: HT29 colon
[19] = test system: IGROV1 ovarian
[20] = test system: K-562 leukemia
[21] = test system: KM12 colon
[22] = test system: LOX IMVI melanoma
[23] = test system: M14 melanoma
[24] = test system: MALME-3M melanoma
[25] = test system: MCF7 breast
[26] = test system: MDA-MB-231 breast
[27] = test system: MDA-MB-435
[28] = test system: MOLT-4 leukemia
[29] = test system: NCI-H226 lung
[30] = test system: NCI-H23 lung
[31] = test system: NCI-H460 lung
[32] = test system: NCI-H522 lung
[33] = test system: NCI/ADR-RES ovarian
[34] = test system: OVCAR-3 ovarian
[35] = test system: OVCAR-4 ovarian
[36] = test system: OVCAR-5 ovarian
[37] = test system: OVCAR-8 ovarian
[38] = test system: PC-3 prostate
[39] = test system: RPMI-8226 leukemia
[40] = test system: RXF 393 renal
[41] = test system: SF-268 CNS
[42] = test system: SF-295 CNS
[43] = test system: SF-539 CNS
[44] = test system: SK-MEL-2 melanoma
[45] = test system: SK-MEL-28 melanoma
[46] = test system: SK-MEL-5 melanoma
[47] = test system: SK-OV-3 ovarian
[48] = test system: SN12C renal
[49] = test system: SNB-19 CNS
[50] = test system: SNB-75 CNS
[51] = test system: SW-620 colon
[52] = test system: T-47D breast
[53] = test system: TK-10 renal
[54] = test system: U251 CNS
[55] = test system: UACC-257 melanoma
[56] = test system: UACC-62 melanoma
[57] = test system: UO-31 renal

In the case of `COc1cc2c3c(n(CCCNCCNCCN)c(=O)c2cc1OC)-c1cc2c(cc1C3=O)OCO2`, the GI50 [1] is reported as 1.91 µM, the TGI [1] is reported as 14.7 µM and the GI50 [2] is reported as 19.1 µM. It also gave a TGI [2] of 39.6 µM, a GI50 [3] of 3.55 µM and a TGI [3] of 62.2 µM. For the same compound, the GI50 [4] was 3.3 µM, the TGI [4] was over 53.2 µM and the GI50 [5] was 3.09 µM. For the same compound, the TGI [5] was 15 µM, the GI50 [6] was 3.38 µM and the TGI [6] was 22.9 µM. For the same compound, the GI50 [7] was 0.0835 µM, the TGI [7] was 1.58 µM and the GI50 [8] was 2.58 µM. The TGI [8] was over 100 µM, the GI50 [9] was 1.14 µM and the TGI [9] was 5.82 µM. It also gave a GI50 [10] of 1.68 µM, a TGI [10] of 8.1 µM and a GI50 [11] of 3.2 µM. It also gave a TGI [11] of 23.8 µM, a GI50 [12] of 0.831 µM and a TGI [12] of 2.19 µM. The GI50 [13] was 11.9 µM, the TGI [13] was over 100 µM and the GI50 [14] was 1.14 µM. The TGI [14] was 15.6 µM, the GI50 [15] was 2.8 µM and the TGI [15] was 20.5 µM. The GI50 [16] was 4.85 µM, the TGI [16] was 37.7 µM and the GI50 [17] was 3.07 µM. The TGI [17] was 15.7 µM, the GI50 [18] was 1.72 µM and the GI50 [19] was 5.21 µM. It also gave a TGI [19] of over 100 µM, a GI50 [20] of 1.18 µM and a TGI [20] of 15.9 µM. For the same compound, the GI50 [21] was 3.41 µM, the TGI [21] was 17.8 µM and the GI50 [22] was 2.67 µM. For the same compound, the TGI [22] was 18.3 µM, the GI50 [23] was 3.35 µM and the TGI [23] was 14.7 µM. For the same compound, the GI50 [24] was 0.699 µM, the TGI [24] was 5.75 µM and the GI50 [25] was 0.434 µM. It also gave a GI50 [26] of 0.904 µM, a TGI [26] of 6.97 µM and a GI50 [27] of 2.67 µM. It also gave a TGI [27] of 10.6 µM, a GI50 [28] of 0.186 µM and a TGI [28] of 1.8 µM. For the same compound, the GI50 [29] was 4.08 µM, the TGI [29] was 21.4 µM and the GI50 [30] was 1.92 µM. The TGI [30] was 8.95 µM, the GI50 [31] was 2.08 µM and the TGI [31] was over 42.6 µM. For the same compound, the GI50 [32] was 2.85 µM, the TGI [32] was over 24.3 µM and the GI50 [33] was over 100 µM. It also gave a TGI [33] of over 100 µM, a GI50 [34] of 1.48 µM and a TGI [34] of 6.01 µM. For the same compound, the GI50 [35] was 5.09 µM, the TGI [35] was over 31 µM and the GI50 [36] was 3.61 µM. It also gave a TGI [36] of over 25.2 µM, a GI50 [37] of 1.46 µM and a TGI [37] of 11.2 µM. The GI50 [38] was 5.62 µM, the TGI [38] was over 55.5 µM and the GI50 [39] was 1.22 µM. For the same compound, the TGI [39] was 3.44 µM, the GI50 [40] was 5.78 µM and the TGI [40] was over 29.3 µM. It also gave a GI50 [41] of 1.72 µM, a TGI [41] of 21.7 µM and a GI50 [42] of 0.522 µM. For the same compound, the TGI [42] was 11.4 µM, the GI50 [43] was 0.551 µM and the TGI [43] was 3.21 µM. It also gave a GI50 [44] of 6.94 µM, a TGI [44] of 17.4 µM and a GI50 [45] of 4.65 µM. For the same compound, the TGI [45] was over 39.1 µM, the GI50 [46] was 1.99 µM and the TGI [46] was 9.5 µM. The GI50 [47] was 12.1 µM, the TGI [47] was over 100 µM and the GI50 [48] was 2.5 µM. For the same compound, the TGI [48] was 64.7 µM, the GI50 [49] was 2.12 µM and the TGI [49] was over 100 µM. For the same compound, the GI50 [50] was 0.277 µM, the TGI [50] was 9.47 µM and the GI50 [51] was 2.13 µM. It also gave a TGI [51] of 43.8 µM, a GI50 [52] of 2.99 µM and a TGI [52] of over 100 µM. It also gave a GI50 [53] of 3.23 µM, a TGI [53] of 22.4 µM and a GI50 [54] of 1.85 µM. For the same compound, the TGI [54] was over 100 µM, the GI50 [55] was 15.2 µM and the TGI [55] was 35.9 µM. The GI50 [56] was 2.34 µM, the TGI [56] was 12.8 µM and the GI50 [57] was 47.8 µM. For the same compound, the TGI [57] was over 100 µM.

— PubChem BioAssay (NCI)
